Assay results from US20230321124A1, “ROR gamma t Inhibitors and Topical Uses Thereof” (DERMIRA, INC., priority 2020, published 2023).

Test system: IL-17A protein
Assay: skin Resident Immune Cell Assay (sRICA), Th17 model, human skin biopsies
Format: cell-based
Settings: Example 2, FIG. 1; 10 ul topical, overnight; media harvested 48 hours after activation; N=6
Description: A skin Resident Immune Cell Assay (sRICA) was used to test Compounds 1, 2 and 3 in Formulations as identified in Example 1 for reduction of IL-17A protein upregulation in the Th17 sRICA model. In this model, human surgical skin waste was cultured in a transwell system, with the dermis in contact with cell culture media and the stratum corneum exposed to air. To perform the assay, each human skin sample was defatted and dermatomed to 750 μm. Next, 8 mm punch biopsies were obtained and placed in a membrane transwell. The biopsies were prepared with a barrier ring to contain the formulation and prevent leakage of the formulation. […]
10 ul of the test solvent system was applied to topically prepared sRICA samples and allowed to penetrate the skin overnight. […] An unpaired, two-tailed students T-test was used to determined statistical significance between Th17 treated skin and treatment groups. The performance of the 3 RORγt inhibitors in Formulations representative of creams (Formulations 3-7), aqueous gels (Formulation 8), non-aqueous gels (Formulations 9-10), and ointments (Formulation 11) were evaluated.
All formulations of containing Compound 1 or Compound 2 were created at 80% saturation, except for all non-aqueous gels (NAG) in which saturation has not yet been determined (>12%) and were arbitrarily formulated at 1% or 5% (see Formulation 10 (1%) and Formulation 10 (5%) in Tables 6 and 7). […]

SMILES: C[C@H]1C[C@H]2[C@@H]3CCC4=CC(=O)C=C[C@]4(C)[C@@]3(F)[C@@H](O)C[C@]2(C)[C@@]1(O)C(=O)CCl [Clobetasol]
- Th17-cocktail induced IL17A protein in culture media: complete suppression
